Test results: US20130281448A1, “SMALL MOLECULE COMPOUNDS FOR TARGETING INFLAMMATORY CONDITIONS” (priority 2012, published 2013)

How the values were obtained:
[1] = test system: metastatic NSCLC with a genetic mutation; experiment: Case report Example 1: metastatic NSCLC patient on daily oral erlotinib; type: in vivo, human; settings: person, 150 mg daily oral
From the text: (§1) A person, whose child has a history of recurrent-remitting MS, developed severe back pain. […] After one year, their serum level of antithyroid peroxidase was reduced from 1719 to 366.

mild plaque psoriasis = experiment: Case report Example 1: psoriasis under erlotinib; type: in vivo, human; settings: person, 150 mg daily oral
From the text: as §1

[2] = test system: type 2 insulin requiring diabetes mellitus; experiment: Case report Example 1: diabetes / insulin requirement under erlotinib; type: in vivo, human; settings: person, 150 mg daily oral
From the text: as §1

Hashimoto's thyroiditis = experiment: Case report Example 1: Hashimoto's thyroiditis, serum antithyroid peroxidase under erlotinib; type: in vivo, human; settings: person; 150 mg daily oral; after one year; reduced from 1719 before treatment
From the text: as §1

[3] = test system: NSCLC with a genetic mutation; experiment: Case report Example 2: NSCLC in MS patient on erlotinib; type: in vivo, human; settings: person; oral 150 mg daily; after six months
Method: (§2) They were placed on interferon β-1a. […], they developed weakness in their lower extremities and was switched to natalizumab. […] […], independent of their MS, they developed NSCLC with a genetic mutation. Natalizumab was discontinued and erlotinib was initiated at an oral dose of 150 mg daily. […] Brain MRIs with contrast two months prior to starting erlotinib, immediately prior to starting erlotinib, and after three and six months on erlotinib are unchanged.

MS = experiment: Case report Example 2: course of MS (symptoms, brain MRI); type: in vivo, human
From the text: A person was well, when they developed numbness and tingling in their lower extremities. A magnetic resonance imaging (MRI) of the brain, along with spinal fluid findings, were consistent with MS. […] From then, they were asymptomatic except for three exacerbations which also responded to intravenous methyl prednisone. They took no other medications for MS.
as §2

rheumatoid arthritis = experiment: Example 3: patient with rheumatoid arthritis; type: in vivo, human; settings: 150 mg daily for several weeks
Method: A patient is diagnosed with rheumatoid arthritis. Erlotinib is administered in a dose of 150 mg daily for several weeks.

Crohn's disease = experiment: Example 4: patient with Crohn's disease; type: in vivo, human; settings: 150 mg daily for several weeks
Method: A patient is diagnosed with Crohn's disease. Erlotinib is administered in a dose of 150 mg daily for several weeks.

multiple sclerosis = experiment: Example 5: group of patients with multiple sclerosis, placebo controlled; type: in vivo, human; settings: erlotinib 150, gefitinib 250, icotinib 300 mg daily for several weeks, versus placebo
Method: (§3) A group of patients with multiple sclerosis is identified. The patients are administered erlotinib (150 mg daily), gefitinib (250 mg daily), icotinib (300 mg daily), or placebo in for several weeks. […] Following clinical improvement, the dose of erlotinib, gefitinb, or icotinib is reduced to a maintenance dose as low as 25 mg, 50 mg, or 75 mg daily, respectively.

insulin resistance = experiment: Example 6: group of patients with insulin resistance, placebo controlled; type: in vivo, human; settings: erlotinib 150, gefitinib 250, icotinib 300 mg daily for several weeks, versus placebo
Method: as §3, with “insulin resistance” for “multiple sclerosis”

psoriasis = experiment: Example 7: group of patients with psoriasis, placebo controlled; type: in vivo, human; settings: erlotinib 150, gefitinib 250, icotinib 300 mg daily for several weeks, versus placebo
Method: as §3, with “psoriasis” for “multiple sclerosis”

[4] = on the face, scalp, neck, and back; cited from earlier work

## C#Cc1cccc(Nc2ncnc3cc(OCCOC)c(OCCOC)cc23)c1 [erlotinib]
[1]; after seven months
  evidence of NSCLC: no evidence of NSCLC or psoriasis
[1]; three weeks after starting
  severe back pain: their pain abated
Mild plaque psoriasis; after seven months
  evidence of psoriasis: no evidence of NSCLC or psoriasis
Mild plaque psoriasis; three weeks after starting
  psoriasis: their psoriasis cleared
[2]; after seven months
  insulin requirement / new medication to control diabetes: remains off of insulin and has not required any new medication to control their diabetes
[2]; after ten weeks
  insulin requirement: no longer required insulin
Hashimoto's thyroiditis
  serum level of antithyroid peroxidase: 366
[3]
  cancer status: total remission
MS; person with MS, oral 150 mg daily, after three and six months
  enhancing lesions on brain MRI: no enhancing lesions
MS; person with MS, oral 150 mg daily, after three and six months versus before starting
  brain MRIs with contrast: unchanged
Rheumatoid arthritis
  clinical outcome: Clinical improvement is seen
Crohn's disease
  clinical outcome: Clinical improvement is seen
Multiple sclerosis
  clinical outcome: Clinical improvement is seen
Insulin resistance
  clinical outcome: Clinical improvement is seen
psoriasis
  clinical outcome: Clinical improvement is seen
[4]
  most common adverse effect: mild to moderate reversible papulopustular skin eruption

## COc1cc2ncnc(Nc3ccc(F)c(Cl)c3)c2cc1OCCCN1CCOCC1 [gefitinib]
Multiple sclerosis
  clinical outcome: Clinical improvement is seen
Insulin resistance
  clinical outcome: Clinical improvement is seen
psoriasis
  clinical outcome: Clinical improvement is seen

## C#Cc1cccc(Nc2ncnc3cc4c(cc23)OCCOCCOCCO4)c1 [icotinib]
Multiple sclerosis
  clinical outcome: Clinical improvement is seen
Insulin resistance
  clinical outcome: Clinical improvement is seen
psoriasis
  clinical outcome: Clinical improvement is seen

## methyl prednisone
MS; patient one, intravenous
  response of MS at first presentation: achieved total remission
MS; patient, intravenous
  response of three MS exacerbations: responded

## natalizumab
MS; patient, since the switch
  MS symptoms: asymptomatic since that time
